{"source": "paper PMC10828444", "about": "“Selective inhibition of overactive warmth-sensitive Ca^2+-permeable TRPV3 channels by antispasmodic agent flopropione for alleviation of skin inflammation” (The Journal of Biological Chemistry, 2023)", "target": "T1, hTRPV3 single channel (Homo sapiens, UniProt Q8NET8)", "T1 construct": "expressed in transfected cells; host or cells: HEK293", "T1 sequence (Q8NET8 1-790)": "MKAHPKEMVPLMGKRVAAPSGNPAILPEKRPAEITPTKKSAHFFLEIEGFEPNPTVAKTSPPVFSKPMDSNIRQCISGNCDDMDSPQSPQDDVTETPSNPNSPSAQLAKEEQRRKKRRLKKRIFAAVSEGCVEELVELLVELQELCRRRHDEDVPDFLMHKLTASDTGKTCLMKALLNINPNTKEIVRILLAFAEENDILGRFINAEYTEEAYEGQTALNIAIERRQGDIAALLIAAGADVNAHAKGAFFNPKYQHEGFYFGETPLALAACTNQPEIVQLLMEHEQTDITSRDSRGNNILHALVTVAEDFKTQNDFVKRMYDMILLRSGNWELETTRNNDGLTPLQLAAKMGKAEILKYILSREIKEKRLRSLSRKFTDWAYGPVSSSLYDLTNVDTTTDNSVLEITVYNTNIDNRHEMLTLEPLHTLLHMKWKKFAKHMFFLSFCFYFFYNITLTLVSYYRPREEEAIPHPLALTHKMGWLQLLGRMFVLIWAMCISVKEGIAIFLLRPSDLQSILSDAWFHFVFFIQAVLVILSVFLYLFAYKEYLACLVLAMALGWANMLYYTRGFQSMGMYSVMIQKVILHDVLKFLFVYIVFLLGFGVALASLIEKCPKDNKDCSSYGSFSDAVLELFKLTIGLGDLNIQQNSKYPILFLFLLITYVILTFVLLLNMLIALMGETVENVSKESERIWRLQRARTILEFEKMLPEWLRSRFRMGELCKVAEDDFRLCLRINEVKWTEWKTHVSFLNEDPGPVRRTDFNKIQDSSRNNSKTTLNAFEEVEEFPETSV", "assay": "Inside-out single-channel recordings of TRPV3 in HEK293 cells", "assay_type": "cell-based", "conditions": "50 μM flopropione in presence of 30 μM 2-APB, −60 mV", "description": "For single-channel recordings, borosilicate glass pipettes were pulled from borosilicate glass capillaries and fire-polished to the resistance between 6 and 10 MΩ using a DMZ universal electrode puller (Zeitz-Instruments, GmbH). For inside-out single-channel recordings, both pipette and external solutions contained (in mM): 130 NaCl, three HEPES, and 0.2 EDTA (pH = 7.4). Membrane potential was clamped at −60 mV and currents were digitized at 10 kHz and filtered at 2 kHz.", "data": [{"smiles": "CCC(=O)c1c(O)cc(O)cc1O", "note": "[flopropione]", "values": [{"measurement": "unitary single channel conductance", "value": "167.1 ± 9.0", "unit": "pS"}, {"measurement": "single-channel open probability", "setting": "n = 4", "value": "0.17 ± 0.06"}]}]}
